Read-outs that look alike come from different tables or passages of the source.
How the values were obtained:
rat α4β2 nAChR subtype = target: T1, rat α4β2 nAChR subtype (Rattus norvegicus, UniProt P09483+P12390); test: Radioligand binding, [3H]nicotine, rat cortex membranes; conditions: [3H]nicotine 5 nM
T1 construct: The cerebral cortex was removed and placed in 20 volumes (weight:volume) of ice-cold preparative buffer; from tissue; host or cells: rat cerebral cortex membranes (female Sprague-Dawley)
Procedure: Preparation of Membranes from Rat Cortex: Rats (Female, Sprague-Dawley), weighing 150-250 g, were maintained on a 12 h light/dark cycle and were allowed free access to water and food supplied by PMI Nutrition International, Inc. Animals were anesthetized with 70% CO2, and then decapitated. Brains were removed and placed on an ice-cold platform. The cerebral cortex was removed and placed in 20 volumes (weight:volume) of ice-cold preparative buffer (137 mM NaCl, 10.7 mM KCl, 5.8 mM KH2PO4, 8 mM Na2HPO4, 20 mM HEPES (free acid), 5 mM iodoacetamide, 1.6 mM EDTA, pH 7.4); PMSF, dissolved in methanol to a final concentration of 100 μM, was added and the suspension was homogenized by Polytron. The homogenate was centrifuged at 18,000×g for 20 min at 4° C. and the resulting pellet was re-suspended in 20 volumes of ice-cold water. After 60 min incubation on ice, a new pellet was collected by centrifugation at 18,000×g for 20 min at 4° C. The final pellet was re-suspended in 10 volumes of buffer and stored at −20° C.
(§1) On the day of the assay, the frozen membranes were thawed and spun at 48,000×g for 20 min. The supernatant was decanted and discarded. The pellet was resuspended in Dulbecco's phosphate buffered saline (PBS, Life Technologies) pH 7.4 and homogenized with the Polytron for 6 seconds. Protein concentrations were determined using a Pierce BCA Protein Assay Kit, with bovine serum albumin as the standard (Pierce Chemical Company, Rockford, Ill.).
(§2) Membrane preparations (approximately 50 μg for human and 200-300 μg protein for rat α4β2) were incubated in PBS (50 μL and 100 μL respectively) in the presence of competitor compound (0.01 nM to 100 μM) and 5 nM [^3H]nicotine for 2-3 hours on ice. Incubation was terminated by rapid filtration on a multi-manifold tissue harvester (Brandel, Gaithersburg, Md.) using GF/B filters presoaked in 0.33% polyethyleneimine (w/v) to reduce non-specific binding. Tissue was rinsed 3 times in PBS, pH 7.4. Scintillation fluid was added to filters containing the washed tissue and allowed to equilibrate. Filters were then counted to determine radioactivity bound to the membranes by liquid scintillation counting (2200CA Tri-Carb LSC, Packard Instruments, 50% efficiency or Wallac Trilux 1450 MicroBeta, 40% efficiency, Perkin Elmer).
(§3) Data were expressed as disintegrations per minute (DPMs). Within each assay, each point had 2-3 replicates. The replicates for each point were averaged and plotted against the log of the drug concentration. IC50, which is the concentration of the compound that produces 50% inhibition of binding, was determined by least squares non-linear regression. Ki values were calculated using the Cheng-Prussof equation (1973): […]

α7 nAChR subtype = target: T2, α7 nAChR subtype (Rattus norvegicus, UniProt Q05941); test: Radioligand binding, [3H]MLA, rat hippocampus membranes; conditions: for inhibition at 5 µM: read-out: α7 high through-put screening (HTS) result
T2 construct: The hippocampus was removed and placed in 10 volumes (weight:volume) of ice-cold preparative buffer; from tissue; host or cells: rat hippocampus membranes (female Sprague-Dawley)
Procedure: Rats (female, Sprague-Dawley), weighing 150-250 g, were maintained on a 12 h light/dark cycle and were allowed free access to water and food supplied by PMI Nutrition International, Inc. Animals were anesthetized with 70% CO2, then decapitated. Brains were removed and placed on an ice-cold platform. The hippocampus was removed and placed in 10 volumes (weight:volume) of ice-cold preparative buffer (137 mM NaCl, 10.7 mM KCl, 5.8 mM KH2PO4, 8 mM Na2HPO4, 20 mM HEPES (free acid), 5 mM iodoacetamide, 1.6 mM EDTA, pH 7.4); PMSF, dissolved in methanol to a final concentration of 100 μM, was added and the tissue suspension was homogenized by Polytron. The homogenate was centrifuged at 18,000×g for 20 min at 4° C. and the resulting pellet was re-suspended in 10 volumes of ice-cold water. After 60 min incubation on ice, a new pellet was collected by centrifugation at 18,000×g for 20 min at 4° C. The final pellet was re-suspended in 10 volumes of buffer and stored at −20° C. On the day of the assay, tissue was thawed, centrifuged at 18,000×g for 20 min, and then re-suspended in ice-cold PBS (Dulbecco's Phosphate Buffered Saline, 138 mM NaCl, 2.67 mM KCl, 1.47 mM KH2PO4, 8.1 mM Na2HPO4, 0.9 mM CaCl2, 0.5 mM MgCl2, Invitrogen/Gibco, pH 7.4) to a final concentration of approximately 2 mg protein/mL. Protein was determined by the method of Lowry et al., J. Biol. Chem. 193: 265 (1951), using bovine serum albumin as the standard.
The binding of [^3H]MLA was measured using a modification of the methods of Davies et al., Neuropharmacol. 38: 679 (1999). [^3H]MLA (Specific Activity=25-35 Ci/mmol) was obtained from Tocris. The binding of [^3H]MLA was determined using a 2 h incubation at 21° C. Incubations were conducted in 48-well micro-titre plates and contained about 200 μg of protein per well in a final incubation volume of 300 μL. The incubation buffer was PBS and the final concentration of [^3H]MLA was 5 nM. The binding reaction was terminated by filtration of the protein containing bound ligand onto glass fiber filters (GF/B, Brandel) using a Brandel Tissue Harvester at room temperature. Filters were soaked in de-ionized water containing 0.33% polyethyleneimine to reduce non-specific binding. Each filter was washed with PBS (3×1 mL) at room temperature. Non-specific binding was determined by inclusion of 50 μM non-radioactive MLA in selected wells.
The inhibition of [^3H]MLA binding by test compounds was determined by including seven different concentrations of the test compound in selected wells. Each concentration was replicated in triplicate. IC50 values were estimated as the concentration of compound that inhibited 50 percent of specific [^3H]MLA binding. Inhibition constants (Ki values), reported in nM, were calculated from the IC50 values using the method of Cheng et al., Biochem. Pharmacol. 22: 3099-3108 (1973).

human α4β2 nAChR subtype = target: T3, human α4β2 nAChR subtype (Homo sapiens, UniProt P17787+P43681); test: Radioligand binding, [3H]nicotine, membranes from SH-EP1/human α4β2 clonal cells; conditions: [3H]nicotine 5 nM, SH-EP1/human α4β2 cell membranes
T3 construct: expressed in transfected cells; host or cells: SH-EP1 clonal cells expressing human α4β2
Procedure: Preparation of membranes from SH-EP1/human α4β2 clonal cells: Cell pellets from 40 150 mm culture dishes were pooled, and homogenized by Polytron (Kinematica GmbH, Switzerland) in 20 milliliters of ice-cold preparative buffer. The homogenate was centrifuged at 48,000 g for 20 minutes at 4° C. The resulting pellet was re-suspended in 20 mL of ice-cold preparative buffer and stored at −20° C.
as §1, §2, §3

[1] = [3H]MLA 5 nM, rat hippocampus membranes, read-out: α7 Ki

T2 sequence (Q05941 23-502): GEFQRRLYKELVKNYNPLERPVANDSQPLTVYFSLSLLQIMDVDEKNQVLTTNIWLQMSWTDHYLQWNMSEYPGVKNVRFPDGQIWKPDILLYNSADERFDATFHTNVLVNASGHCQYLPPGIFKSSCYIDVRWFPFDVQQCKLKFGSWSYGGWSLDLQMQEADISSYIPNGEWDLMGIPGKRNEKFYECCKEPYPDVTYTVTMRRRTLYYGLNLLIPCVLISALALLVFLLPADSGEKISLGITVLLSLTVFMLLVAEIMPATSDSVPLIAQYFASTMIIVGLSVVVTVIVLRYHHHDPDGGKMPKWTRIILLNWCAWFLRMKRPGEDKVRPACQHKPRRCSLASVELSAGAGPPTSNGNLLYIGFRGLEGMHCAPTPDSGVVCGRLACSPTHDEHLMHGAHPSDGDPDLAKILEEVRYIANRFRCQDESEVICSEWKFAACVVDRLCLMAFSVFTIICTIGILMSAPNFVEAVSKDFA
T1 sequence (P09483 31-630): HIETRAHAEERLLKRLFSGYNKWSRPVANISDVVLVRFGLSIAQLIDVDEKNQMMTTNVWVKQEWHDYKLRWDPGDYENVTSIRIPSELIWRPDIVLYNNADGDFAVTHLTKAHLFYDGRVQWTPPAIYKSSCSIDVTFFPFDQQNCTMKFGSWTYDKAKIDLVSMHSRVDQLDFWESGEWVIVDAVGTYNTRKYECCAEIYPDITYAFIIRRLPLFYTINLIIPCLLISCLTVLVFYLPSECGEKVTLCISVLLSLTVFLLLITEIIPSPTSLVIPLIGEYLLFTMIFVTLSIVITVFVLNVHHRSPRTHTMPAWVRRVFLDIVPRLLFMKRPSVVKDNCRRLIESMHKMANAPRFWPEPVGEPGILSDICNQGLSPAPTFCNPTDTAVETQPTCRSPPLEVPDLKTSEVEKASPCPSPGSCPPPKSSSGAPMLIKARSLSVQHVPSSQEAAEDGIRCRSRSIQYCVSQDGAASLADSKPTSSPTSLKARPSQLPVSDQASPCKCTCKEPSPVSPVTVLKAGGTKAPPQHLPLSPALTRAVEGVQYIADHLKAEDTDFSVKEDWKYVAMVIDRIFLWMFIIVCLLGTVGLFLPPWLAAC
T1 sequence (P12390 25-500): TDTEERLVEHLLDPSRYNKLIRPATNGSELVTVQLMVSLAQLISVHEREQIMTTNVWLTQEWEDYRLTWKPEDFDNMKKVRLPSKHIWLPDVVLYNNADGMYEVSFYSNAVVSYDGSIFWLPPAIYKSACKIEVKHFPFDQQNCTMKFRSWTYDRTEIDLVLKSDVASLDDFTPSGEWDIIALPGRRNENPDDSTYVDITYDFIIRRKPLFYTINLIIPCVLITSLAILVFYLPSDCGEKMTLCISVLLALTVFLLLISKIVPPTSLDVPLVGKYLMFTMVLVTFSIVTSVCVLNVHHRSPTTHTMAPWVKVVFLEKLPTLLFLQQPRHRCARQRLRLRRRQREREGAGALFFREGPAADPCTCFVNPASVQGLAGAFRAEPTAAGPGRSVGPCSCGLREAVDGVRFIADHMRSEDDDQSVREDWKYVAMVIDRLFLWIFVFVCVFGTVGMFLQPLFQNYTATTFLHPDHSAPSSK
T3 sequence (P43681 29-627 limits assumed): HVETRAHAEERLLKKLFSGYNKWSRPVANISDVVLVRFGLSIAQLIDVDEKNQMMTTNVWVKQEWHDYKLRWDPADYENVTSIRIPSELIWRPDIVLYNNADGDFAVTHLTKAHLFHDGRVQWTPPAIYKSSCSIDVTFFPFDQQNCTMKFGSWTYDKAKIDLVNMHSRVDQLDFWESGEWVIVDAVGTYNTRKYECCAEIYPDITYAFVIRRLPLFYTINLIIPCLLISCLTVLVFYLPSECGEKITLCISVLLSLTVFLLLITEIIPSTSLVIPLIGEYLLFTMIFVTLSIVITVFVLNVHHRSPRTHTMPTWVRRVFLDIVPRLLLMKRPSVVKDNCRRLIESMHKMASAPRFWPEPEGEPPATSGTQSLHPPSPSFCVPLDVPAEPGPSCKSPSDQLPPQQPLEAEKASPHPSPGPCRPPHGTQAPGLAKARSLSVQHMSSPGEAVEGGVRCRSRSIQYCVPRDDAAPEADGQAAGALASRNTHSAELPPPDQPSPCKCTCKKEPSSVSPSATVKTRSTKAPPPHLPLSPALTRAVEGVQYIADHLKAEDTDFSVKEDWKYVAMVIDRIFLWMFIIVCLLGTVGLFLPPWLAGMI
T3 sequence (P17787 26-502): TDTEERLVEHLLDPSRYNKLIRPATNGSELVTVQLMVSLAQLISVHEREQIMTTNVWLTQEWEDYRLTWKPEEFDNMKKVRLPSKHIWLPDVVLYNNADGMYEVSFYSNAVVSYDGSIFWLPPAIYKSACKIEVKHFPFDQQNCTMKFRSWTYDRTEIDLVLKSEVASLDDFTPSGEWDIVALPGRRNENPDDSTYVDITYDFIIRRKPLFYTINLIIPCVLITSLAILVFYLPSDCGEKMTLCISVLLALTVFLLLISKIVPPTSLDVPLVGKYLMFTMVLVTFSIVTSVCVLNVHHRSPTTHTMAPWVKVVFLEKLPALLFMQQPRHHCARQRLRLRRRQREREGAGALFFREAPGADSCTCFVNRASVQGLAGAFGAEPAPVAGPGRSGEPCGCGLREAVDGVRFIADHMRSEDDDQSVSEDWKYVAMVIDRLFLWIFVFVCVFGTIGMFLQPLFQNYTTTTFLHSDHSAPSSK

| SMILES | Ki (rat α4β2 nAChR subtype) [nM] | inhibition at 5 µM (α7 nAChR subtype) [%] | Ki (human α4β2 nAChR subtype) [nM] | Ki (α7 nAChR subtype; [1]) [nM] | Ki (α7 nAChR subtype; α7 Ki) [nM] |
| --- | --- | --- | --- | --- | --- |
| O=C(C1CC2CCC1C2)N1CC2CNCC2C1 (stereo not drawn) [Example 10-42] | 139 | < 50 | 64.6 |  |  |
| O=C(C1CC2C=CC1C2)N1CC2CNCC2C1 (stereo not drawn) [Example 10-43] | 34 | < 50 | 15.8 |  |  |
| O=C([C@@H]1CC2C=CC1C2)N1CC2CNCC2C1 (stereo partly drawn) [Example 10-44] | 9.3 | < 50 | 3.4 |  |  |
| O=C(C1C2CCCCC21)N1CC2CNCC2C1 (stereo not drawn) [Example 10-45] | 26 |  | 8.6 | 508 |  |
| O=C(C1C[C@H]2C=C[C@@H]1CC2)N1CC2CNCC2C1 (stereo partly drawn) [Example 10-46] | 236 | < 50 | 44.5 |  |  |
| O=C1CCCC2=C1CC(C(=O)N1CC3CNCC3C1)CC2 (stereo not drawn) [Example 10-47] | 369 | < 50 | 419 |  |  |
| O=C(C1CC=CCC1c1cccnc1)N1CC2CNCC2C1 (stereo not drawn) [Example 10-48] | 999 | < 50 | 345 |  |  |
| O=C(C1CC=CCC1)N1CC2CNCC2C1 (stereo not drawn) [Example 10-49] | 236 | < 50 | 133 |  |  |
| C[C@@H]1C(C(=O)N2CC3CNCC3C2)[C@@H]1C (stereo partly drawn) [Example 10-51] | 17.6 |  | 44.6 | 4790 |  |
| CC1C(C)C1C(=O)N1CC2CNCC2C1 (stereo not drawn) [Example 10-52] | 133 | < 50 | 12.2 |  |  |
| COC1CC(C(=O)N2CC3CNCC3C2)C1 (stereo not drawn) [Example 10-53] | 83.7 | < 50 | 147 |  |  |
| O=C(C1CC(F)(F)C1)N1CC2CNCC2C1 (stereo not drawn) [Example 10-54] | 20.3 | < 50 | 5.7 |  |  |
| CC(=O)N1CC2CNCC(C2)C1 [Example 10-55] | 18.7 |  | 20.2 | 3280 |  |
| O=C(C1CC1)N1CC2CNCC(C2)C1 [Example 10-56] | 2.8 |  | 0.4 | 95.7 |  |
| CC(C)(C)C(=O)N1CC2CNCC(C2)C1 [Example 10-57] | 112 | < 50 | 126 |  |  |
| O=C(C1=CCCC1)N1CC2CNCC(C2)C1 [Example 10-58] | 177 | < 50 | 468 |  |  |
| O=C(C(F)F)N1CC2CNCC(C2)C1 [Example 10-59] | 1.7 |  | 24.6 | 295 |  |
| CC(C)=CC(=O)N1CC2CNCC(C2)C1 [Example 10-60] | 25.9 | < 50 | 13.8 |  |  |
| COCC(=O)N1CC2CNCC(C2)C1 [Example 10-61] | 50 |  | 38.8 | 1470 |  |

| SMILES | Ki (rat α4β2 nAChR subtype) [nM] | inhibition at 5 µM (α7 nAChR subtype) [%] | Ki (human α4β2 nAChR subtype) [nM] | Ki (α7 nAChR subtype; [1]) [nM] | Ki (α7 nAChR subtype; α7 Ki) [nM] |
| --- | --- | --- | --- | --- | --- |
| COCCC(=O)N1CC2CNCC(C2)C1 [Example 10-62] | 175 | < 50 | 127 |  |  |
| CCC(=O)N1CC2CNCC(C2)C1 [Example 10-63] | 12.1 |  | 10.4 | 795 |  |
| C/C=C/CC(=O)N1CC2CNCC(C2)C1 [Example 10-66] | 30.1 | < 50 | 16.7 |  |  |
| CCCC(=O)N1CC2CNCC(C2)C1 [Example 10-67] | 8.1 |  | 2.9 | 230 |  |
| O=C(C1CC1(F)F)N1CC2CNCC(C2)C1 (stereo not drawn) [Example 10-68] | 1.2 |  | 1.1 | 142 |  |
| CC1(C)CC1C(=O)N1CC2CNCC(C2)C1 (stereo not drawn) [Example 10-69] | 1.5 |  | 1 | 377 |  |
| CC1(C(=O)N2CC3CNCC(C3)C2)CC1 [Example 10-70] | 874 | < 50 | 214 |  |  |
| CC1CC1C(=O)N1CC2CNCC(C2)C1 (stereo not drawn) [Example 10-71] | 1.4 |  | 1 | 78.7 |  |
| O=C(N1CC2CNCC(C2)C1)C1(O)CC1 [Example 10-72] | 75.9 | < 50 | 225 |  |  |
| CC1(C)C(C(=O)N2CC3CNCC(C3)C2)C1(C)C [Example 10-73] | 119 | < 50 | 28.2 |  |  |
| N#CC1(C(=O)N2CC3CNCC(C3)C2)CC1 [Example 10-74] | 4840 | < 50 | 1340 |  |  |
| O=C(C1CCC1)N1CC2CNCC(C2)C1 [Example 10-75] | 1.6 |  | 1.4 | 70 |  |
| O=C(C1CC12CCC2)N1CC2CNCC(C2)C1 (stereo not drawn) [Example 10-76] | 1.6 |  | 1.1 | 680 |  |
| O=C(C1CC=CC1)N1CC2CNCC(C2)C1 [Example 10-77] | 25.6 |  | 12.5 | 54 |  |
| O=C([C@H]1C[C@H]1F)N1CC2CNCC(C2)C1 [Example 10-78] | 2.9 |  | 1.7 |  | 397 |
| O=C([C@H]1C[C@@H]1F)N1CC2CNCC(C2)C1 [Example 10-79] | 4.1 |  | 2 |  | 961 |
| O=C(CCF)N1CC2CNCC(C2)C1 [Example 10-80] | 13.8 | < 50 | 9.5 |  |  |
| CC(C)C(=O)N1CC2CNCC(C2)C1 [Example 10-81] | 102 |  | 44.4 | 645 |  |
| O=C(C1CC(F)C1)N1CC2CNCC(C2)C1 (stereo not drawn) [Example 10-82] | 1.4 |  | 2.9 | 1040 |  |
